# Experimental data as given in patent US10851116B2, “Bicyclic amines as novel JAK kinase inhibitors” (LEO Pharma A/S, priority 2017, dated 2020).
# How the values were obtained:
# [1] = in vitro metabolic stability in human liver microsomes; format: in vitro ADME; settings: human, liver microsomes, compound 0.5 μM, human liver microsomes 0.5 mg/mL, NADPH, 40 min, 37° C.; read-out: Human liver microsome Clapp (apparent intrinsic clearance)
# Procedure: To assess the in vitro metabolic stability, the compounds (0.5 μM) were incubated in duplicates with human liver microsomes (0.5 mg/mL) in phosphate buffer and NADPH, in 96-well plates for 40 min (37° C.), using a liquid handling robot (Hamilton Microlab Star). Sample aliquots were taken at 0, 5, 10, 20 and 40 min, and dispensed into cold acetonitrile, in order to stop the reactions. The plates were centrifuged for 30 minutes before the samples were analyzed using liquid chromatography coupled to a time-of-flight mass spectrometer (AB Sciex API5600). The compound depletion over time was used to estimate the elimination rate constant, from which the apparent intrinsic clearance, Clapp, was calculated and the values are listed in table 2.
# JAK1 = JAK1 (Homo sapiens (Human), UniProt P23458); assay: JAK kinase assay (HTRF), JAK1; format: biochemical; settings: catalytic domain (aa 850-1154), GST-tag, ATP at Km (7 μM)
# JAK1, sequence (P23458 850-1154): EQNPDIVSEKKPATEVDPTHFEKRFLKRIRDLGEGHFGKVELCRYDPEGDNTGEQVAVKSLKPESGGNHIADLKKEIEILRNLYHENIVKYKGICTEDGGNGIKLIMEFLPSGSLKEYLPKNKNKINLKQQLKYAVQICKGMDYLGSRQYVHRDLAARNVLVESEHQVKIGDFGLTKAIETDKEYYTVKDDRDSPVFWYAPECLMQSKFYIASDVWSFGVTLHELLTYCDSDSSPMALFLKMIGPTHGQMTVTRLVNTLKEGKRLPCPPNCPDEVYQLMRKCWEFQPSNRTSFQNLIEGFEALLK
# Procedure: (§1) Human baculovirus-expressed JAK1, 2, 3 and TYK2 were purchased from Carna Biosciences, Inc. All four purified enzymes contain only the catalytic domain. JAK1 (aa 850-1154) and TYK2 (aa 871-1187) are expressed with an N-terminally fused GST-tag, and JAK2 and JAK3 with an N-terminally fused His-tag.
# (§2) Inhibition of phosphorylation of a synthetic peptide was measured in an HTRF-based assay using the TK substrate-Biotin from the Cisbio HTRFKinEASE TK kit. First, 2 μl of TK solution (TK substrate-biotin in kinase buffer [1× enzymatic buffer from HTRFKinEASE TK kit, 1 mM DTT]) is added to a plate containing 1 μl prediluted compound (final assay concentration DMSO: 0.75%). Then, 5 μl kinase-ATP mix (prepared in kinase buffer) is added to the wells and the plates are incubated at RT for 20-30 min. For all four kinases a concentration of ATP that corresponded to the Km for ATP was used. The final concentrations of buffers, substrate, kinase and ATP were: JAK1: 50 mM Hepes buffer pH 7.0, 0.01% BSA, 10 mM MgCl2, 1 mM DTT, 7 μM ATP, 50 nM SEB, 1 μM TK Substrate-Biotin and 5 ng JAK1; JAK2: 50 mM Hepes buffer pH 7.0, 0.01% BSA, 5 mM MgCl2, 1 mM DTT, 4 μM ATP, 1 μM TK Substrate-Biotin and 0.1 ng JAK2; JAK3: 50 mM Hepes buffer pH 7.0, 0.01% BSA, 5 mM MgCl2, 1 mM DTT, 2 μM ATP, 1 μM TK Substrate-Biotin and 0.3 ng JAK3; TYK2: 50 mM Hepes buffer pH 7.0, 0.01% BSA, 5 mM MgCl2, 1 mM DTT, 13 μM ATP, 50 nM SEB, 1 μM TK Substrate-Biotin and 0.8 ng TYK2. Thereafter, the kinase reaction is stopped by adding 4 μl detection mix (final concentrations: 50 mM Hepes buffer pH 7.0, 0.01% BSA, 0.8 M KF, 20 mM EDTA, 42 nM Streptavidin-XL665 and 1:400 STK Ab Cryptate) and the plates are incubated overnight in the dark. The HTRF signal is read using an Envision plate reader.
# JAK3 = JAK3 (Homo sapiens (Human), UniProt P52333); assay: JAK kinase assay (HTRF), JAK3; format: biochemical; settings: catalytic domain, His-tag, ATP at Km (2 μM)
# JAK3, sequence (P52333 822-1111): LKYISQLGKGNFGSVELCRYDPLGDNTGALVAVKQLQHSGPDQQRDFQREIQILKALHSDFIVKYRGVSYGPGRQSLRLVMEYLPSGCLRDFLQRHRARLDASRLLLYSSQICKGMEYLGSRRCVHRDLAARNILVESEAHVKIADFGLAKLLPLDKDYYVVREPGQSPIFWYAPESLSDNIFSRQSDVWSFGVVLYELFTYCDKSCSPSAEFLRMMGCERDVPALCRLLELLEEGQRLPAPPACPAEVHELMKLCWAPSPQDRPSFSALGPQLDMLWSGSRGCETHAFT
# Procedure: as §1, §2
# JAK2 = JAK2 (Homo sapiens (Human), UniProt O60674); assay: JAK kinase assay (HTRF), JAK2; format: biochemical; settings: catalytic domain, His-tag, ATP at Km (4 μM)
# JAK2, sequence (O60674 849-1124): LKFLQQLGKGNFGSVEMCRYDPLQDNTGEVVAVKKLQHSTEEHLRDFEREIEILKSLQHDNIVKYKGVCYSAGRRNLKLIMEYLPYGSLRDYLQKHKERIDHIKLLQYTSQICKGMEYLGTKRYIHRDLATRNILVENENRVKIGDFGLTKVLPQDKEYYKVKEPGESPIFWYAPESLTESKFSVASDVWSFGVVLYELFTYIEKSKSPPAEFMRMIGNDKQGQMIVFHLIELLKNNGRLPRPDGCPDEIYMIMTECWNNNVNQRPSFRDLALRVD
# Procedure: as §1, §2
# TYK2 = TYK2 (Homo sapiens (Human), UniProt P29597); assay: JAK kinase assay (HTRF), TYK2; format: biochemical; settings: catalytic domain (aa 871-1187), GST-tag, ATP at Km (13 μM)
# TYK2, sequence (P29597 871-1187): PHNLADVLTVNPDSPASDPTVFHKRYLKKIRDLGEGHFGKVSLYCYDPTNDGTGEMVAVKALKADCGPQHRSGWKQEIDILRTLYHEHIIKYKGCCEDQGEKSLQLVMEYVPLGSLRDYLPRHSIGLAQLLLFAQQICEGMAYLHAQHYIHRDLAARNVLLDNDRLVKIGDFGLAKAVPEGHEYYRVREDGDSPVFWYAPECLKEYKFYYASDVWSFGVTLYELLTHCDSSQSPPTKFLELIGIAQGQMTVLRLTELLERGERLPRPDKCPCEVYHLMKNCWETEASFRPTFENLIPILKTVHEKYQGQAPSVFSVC
# Procedure: as §1, §2
SMILES,CLint scaled at 0.5 μM [1] [mL/min/kg],EC50 (JAK1) [nM],EC50 (JAK3) [nM],EC50 (JAK2) [nM],EC50 (TYK2) [nM]
"CC12CN(c3ccc(C#N)cn3)C[C@H]1CCN(c1ncnc3[nH]ccc13)C2 (stereo in doubt) [Example 33, 6-[(3aS,7aS)-3a-methyl-5-(7H-pyrrolo[2,3-d]pyrimidin-4-yl)-1,3,4,6,7,7a-hexahydropyrrolo[3,4-c]pyridin-2-yl]pyridine-3-carbonitrile]",166,1,8,5,59
C[C@]12CN(c3ccc(C#N)nn3)C[C@H]1CCN(c1ncnc3[nH]ccc13)C2 (racemic) [Example 42],53,10,78,53,574
"CC12CN(c3ccc(C#N)cn3)C[C@@H]1CCN(c1ncnc3[nH]ccc13)C2 (stereo in doubt) [Example 34, 6-[(3aR,7aR)-3a-methyl-5-(7H-pyrrolo[2,3-d]pyrimidin-4-yl)-1,3,4,6,7,7a-hexahydropyrrolo[3,4-c]pyridin-2-yl]pyridine-3-carbonitrile]",136,192,1170,927,7010
"CC[C@]12CN(c3nnc(Br)s3)CC[C@H]1CCN(c1ncnc3[nH]ccc13)C2 (relative stereo) [Example 20, 2-[(4aR*,8aS*)-8a-ethyl-7-(7H-pyrrolo[2,3-d]pyrimidin-4-yl)-3,4,4a,5,6,8-hexahydro-1H-2,7-naphthyridin-2-yl]-5-bromo-1,3,4-thiadiazole]",200,4,5,17,269
"CC[C@]12CN(C#N)CC[C@H]1CCN(c1ncnc3[nH]ccc13)C2 [Example 22, (4aR,8aS)-8a-ethyl-7-(7H-pyrrolo[2,3-d]pyrimidin-4-yl)-3,4,4a,5,6,8-hexahydro-1H-2,7-naphthyridine-2-carbonitrile]",185,1,6,2,6
"C[C@]12CN(C#N)C[C@H]1CCN(c1ncnc3[nH]ccc13)C2 [Example 29, (3aS,7aS)-3a-methyl-5-(7H-pyrrolo[2,3-d]pyrimidin-4-yl)-1,3,4,6,7,7a-hexahydropyrrolo[3,4-c]pyridine-2-carbonitrile]",10,10,118,35,123
